From patent US11077087B2, “Compositions comprising dihydroquercetin for use in methods for treating herpes” (BIONOOX SUISSE SA, priority 2015, dated 2021)

Key:
Format in all cases: cell-based
neutrophils [1] = experiment: ROS production by neutrophils triggered by PMA, luminol chemiluminescence; settings: for Integral (total chemiluminescence counts, total ROS production) / Peak max / Slope max / T. Slope max / T. half (rise) / T. max (peak): PMA 100 ng/mL; for Integral (total chemiluminescence counts, total ROS production): 22.21 min
Experimental: (§1) PMA (12-O-tetradecanoyl-phorbol-13-acetate, Consolidated Midland Corp., Brewster, N.Y.) is dissolved at 1 mg/ml in dimethyl sulfoxide. This stock solution maintains full biological activity for several months when stored at […] in the dark. Unless otherwise specified, polymorphonuclear neutrophils (PMN), 10^6/ml in BS-H, are put into plastic centrifuge tubes (Falcon No. 2070, Falcon Labware, Div. of Becton, Dickinson & Co., Oxnard, Calif.) and brought to 37° C. PMA stock solution is added to provide a final concentration of 100 ng/ml of PMA. “Resting” (control) cells are exposed to […] dimethyl sulfoxide. A chemiluminescence (using luminol) method is used to measure Reactive Oxygen species (ROS) production (Dang et al, J Clin Invest. 2006, 116(7):2033-43; Boussetta et al, Blood. 2010, 116(26):5795-802). Superoxide production is measured by the superoxide dismutase (SOD)-inhibitable ferricytochrome c reduction assay.
Neutrophils are triggered by PMA (100 ng/mL) in the presence of different concentrations of DHQ (0, 1, 10 and 100 μM) at 37° C. in Hanks buffer containing 10 μM luminol and chemiluminescence is measured by a chemiluminometer. Total chemiluminescence counts during 22.21 min. (integrals) corresponding to total ROS production are determined.

[2] = system: polymorphonuclear neutrophils; experiment: Superoxide production by neutrophils, SOD-inhibitable ferricytochrome c reduction assay
Experimental: as §1
When activated by opsonized bacteria, zymozan, fMLP (Formyl-Methionyl-Leucyl-Phenylalanine) or PMA (phorbol myristate acetate), neutrophils undergo an oxidative burst resulting in the production of superoxide anion and subsequent hydrogen peroxide. The oxidative burst is mainly mediated by the NADPH oxidase activation, enzyme responsible of the superoxide anion production. […] This effect results either from the direct anion superoxide scavenging or from the inhibition of NADPH oxidase activation.

[3] = system: polymorphonuclear neutrophils; experiment: Oxygen consumption of polymorphonuclear neutrophils triggered by PMA and fMLP; settings: data not shown
human mast cells = experiment: Mast cell degranulation (IgE/anti-IgE), beta-hexosaminidase release
Description: Pure populations of human mast cells (HMC) are obtained by long-term culture of human normal hematopoietic progenitors (CD34^+ cells) in the continuous presence of Stem Cell Factor (SCF). Sources of these CD34^+ cells are mainly bone marrow, cord blood or peripheral blood. Usually, mononuclear cells from bone marrow and cord blood contain 0.5-1% of CD34^+ cells, whereas peripheral blood contains less than 0.1% of CD34^+ cells. Hematopoietic progenitor cells can be rapidly and efficiently enriched to a purity of about 85-98% using positive selection of magnetically labeled CD34^+ cells. Hematopoietic progenitor cells are then magnetically labeled using MACS CD34 MicroBeads. The magnetically labeled cells are enriched on positive selection columns in the magnetic field. Mononuclear cells from peripheral blood (PBMC), cord blood, or bone marrow may otherwise be obtained by density gradient centrifugation over Ficoll Paque®. Fractionation methods for producing mast cells are described in the art (see for instance Arock et al., 2008, Methods in Molecular biology 415: 241-254). Mast cell degranulation was induced by sequential treatment of mast cell by IgE, then by anti-IgE antibodies. Degranulation was subsequently measured by evaluating the release of beta-hexosaminidase, 1 h after IgE stimulation (see FIG. 4).

neutrophils [4] = experiment: ROS production by neutrophils triggered by fMLP, luminol chemiluminescence; settings: for Integral (total chemiluminescence counts, total ROS production): 22.21 min
Experimental: Neutrophils (5×10^5) are suspended in 0.5 mL of Hanks balanced salt solution containing 10 μM luminol at 37° C. The cells are then stimulated with 10^−6M fMLP (N-formylmethionyl-leucyl-phenylalanine). Chemiluminescence is recorded with a luminometer (Berthold-Biolumat LB937). Similarly, neutrophils were triggered by fMLP (10^−6 M) in the presence of different concentrations of DHQ (0, 1, 10 and 100 μM) at 37° C. in Hanks buffer containing 10 μM luminol and chemiluminescence was measured by a chemiluminometer. Total chemiluminescence counts during 22.21 min. (integrals) corresponding to total ROS production were determined.

NIH-3T3 fibroblasts = experiment: NIH-3T3 fibroblast proliferation, MTT assay; settings: increasing DHQ concentrations
Experimental: The NIH 3T3 cell line was purchased from the ATCC (CRL1658). Cell lines are grown in Dulbecco's Modified Eagles' Medium (DMEM) supplemented with 10% heat inactivated newborn calf serum, 100 UI/mL penicillin and 100 μg/mL streptomycin (all from Gibco BRL) at 37° C. in a humidified 5% CO2 atmosphere. DHQ is dissolved in DMSO. Cells are cultured during 48 hours in the absence or in the presence of various DHQ concentrations. NIH-3T3 fibroblasts are immortalized cells which mimic the inflammatory phenotype assessed by the abundance of actin stress fibers and high contractility.
The effects of DHQ on the growth of NIH-3T3 cells are determined using the 3-(4,5-dimetthylthiazol-2-yl)-2,5-diphenyltetrazolium bromide (MTT) assay. Briefly, cells are plated on 96 well plates at 4,000 cells per well with increasing DHQ concentrations. After 72 hours of incubation with the drug, medium is removed and replaced by complete medium+MTT (10% v/v). After 3 hours of incubation, formazan crystals are dissolved in buffer containing 10% SDS (w/v, Bio-Rad), 50% Dimethyl formamide (Sigma), pH 4.7. Absorbance of reduced formazan is measured at 580 nm. Results are presented in FIG. 5: 100% of MTT reduced is attributed to the measure performed in absence of DHQ.

[5] = fMLP 10^−6 M, DHQ 1 μM (inferred)
[6] = fMLP 10^−6 M, DHQ 10 μM (inferred)
[7] = fMLP 10^−6 M, DHQ 100 μM (inferred)

O=C1c2c(O)cc(O)cc2OC(c2ccc(O)c(O)c2)C1O (stereo not shown) [DHQ]
inhibition at 1 µM (neutrophils [1]; Neutrophil, neutrophils activated by PMA, DHQ 1 μM): ~80%
Integral (total chemiluminescence counts, total ROS production) (neutrophils [1]; DHQ 1 μM (line not labelled, concentration inferred)): 4.509E+08
Integral (total chemiluminescence counts, total ROS production) (neutrophils [1]; DHQ 10 μM (line not labelled, concentration inferred)): 2.0172E+08
Integral (total chemiluminescence counts, total ROS production) (neutrophils [1]; DHQ 100 μM (line not labelled, concentration inferred)): 3.576E+07
Peak max (neutrophils [1]; DHQ 1 μM (inferred)): 2.430E+07 cpm
Slope max (neutrophils [1]; DHQ 1 μM (inferred)): 9.790E+06 cpm
T. Slope max (neutrophils [1]; DHQ 1 μM (inferred)): 1.78
T. half (rise) (neutrophils [1]; DHQ 1 μM (inferred)): 2.44
T. max (peak) (neutrophils [1]; DHQ 1 μM (inferred)): 11.77
Peak max (neutrophils [1]; DHQ 10 μM (inferred)): 1.134E+07 cpm
Slope max (neutrophils [1]; DHQ 10 μM (inferred)): 4.380E+06 cpm
T. Slope max (neutrophils [1]; DHQ 10 μM (inferred)): 1.55
T. half (rise) (neutrophils [1]; DHQ 10 μM (inferred)): 2.22
T. max (peak) (neutrophils [1]; DHQ 10 μM (inferred)): 9.55
Peak max (neutrophils [1]; DHQ 100 μM (inferred)): 2.260E+06 cpm
Slope max (neutrophils [1]; DHQ 100 μM (inferred)): 1.033E+06 cpm
T. Slope max (neutrophils [1]; DHQ 100 μM (inferred)): 4.66
T. half (rise) (neutrophils [1]; DHQ 100 μM (inferred)): 4.89
T. max (peak) (neutrophils [1]; DHQ 100 μM (inferred)): 11.55
cytochrome c reduction (anion superoxide production) ([2]; +PMA, DHQ 1 μM): 0.110 dDO/min
cytochrome c reduction (anion superoxide production) ([2]; +PMA, DHQ 10 μM): 0.070 dDO/min
cytochrome c reduction (anion superoxide production) ([2]; +PMA, DHQ 100 μM): 0.021 dDO/min
cytochrome c reduction (anion superoxide production) ([2]; +fMLP, DHQ 1 μM): 0.144 dDO/min
cytochrome c reduction (anion superoxide production) ([2]; +fMLP, DHQ 10 μM): 0.105 dDO/min
cytochrome c reduction (anion superoxide production) ([2]; +fMLP, DHQ 100 μM): 0.040 dDO/min
cytochrome c reduction (anion superoxide production) ([2]; resting neutrophils, DHQ 1 μM): 0.000 dDO/min
cytochrome c reduction (anion superoxide production) ([2]; resting neutrophils, DHQ 10 μM): 0.036 dDO/min
cytochrome c reduction (anion superoxide production) ([2]; resting neutrophils, DHQ 100 μM): 0.086 dDO/min
oxygen consumption of polymorphonuclear neutrophils [3]: strongly inhibits
inhibition at 10 µM (human mast cells; Homo sapiens, Mast cell, DHQ 10 μM, beta-hexosaminidase release 1 h after IgE stimulation): ≤ 50%
inhibition at 100 µM (human mast cells; Homo sapiens, Mast cell, DHQ 100 μM, beta-hexosaminidase release 1 h after IgE stimulation): 80%
inhibitory activity on degranulation compared with reference molecules (human mast cells; versus kinase inhibitors and chromoglycate): superior to kinase inhibitors and chromoglycate
inhibition at 1 µM (neutrophils [4]; Neutrophil, neutrophils activated by fMLP, DHQ 1 μM): ~80%
Integral (total chemiluminescence counts, total ROS production) (neutrophils [4]; fMLP 10^−6 M, DHQ 1 μM (line not labelled, concentration inferred)): 3.838E+08
Integral (total chemiluminescence counts, total ROS production) (neutrophils [4]; fMLP 10^−6 M, DHQ 10 μM (line not labelled, concentration inferred)): 1.867E+08
Integral (total chemiluminescence counts, total ROS production) (neutrophils [4]; fMLP 10^−6 M, DHQ 100 μM (line not labelled, concentration inferred)): 4.329E+07
Peak max (neutrophils [4]; [5]): 3.731E+07 cpm
Slope max (neutrophils [4]; [5]): 2.492E+07 cpm
T. Slope max (neutrophils [4]; [5]): 0.22
T. half (fall) (neutrophils [4]; [5]): 3.78
T. max (peak) (neutrophils [4]; [5]): 1.33
Peak max (neutrophils [4]; [6]): 1.770E+07 cpm
Slope max (neutrophils [4]; [6]): 1.206E+07 cpm
T. Slope max (neutrophils [4]; [6]): 0.22
T. half (fall) (neutrophils [4]; [6]): 3.55
T. max (peak) (neutrophils [4]; [6]): 1.33
Peak max (neutrophils [4]; [7]): 2.533E+06 cpm
Slope max (neutrophils [4]; [7]): 1.464E+06 cpm
T. Slope max (neutrophils [4]; [7]): 2.00
T. half (rise) (neutrophils [4]; [7]): 1.55
T. max (peak) (neutrophils [4]; [7]): 6.00
cell viability of NIH-3T3 cells (extent of MTT reduced) (NIH-3T3 fibroblasts): reduced
